For one test, the system named is rat liver cells. The test is described as follows: Cholesterol synthesis inhibitory activity in rat liver cells ([14C]-acetic acid uptake in cholesterol). In kind it is cell-based. Conditions: concentration inhibiting 50% of [14C] acetic acid radioactivity uptake into cholesterol; SD rat liver cells; read-out: Cholesterol synthesis inhibitory action in rat liver cells IC50 (10^-6M). The protocol:
Liver cells were isolated from rat livers by the in situ collagenase perfusion method. Described specifically, a 6-week-old male SD rat was intraperitoneally administered with a 50 mg/ml pentobarbital sodium solution and thereby anesthetized. After ventrotomy and cannulation from the portal vein, the rat was sacrificed under exsanguination by the excision of the lower large vein. From the cannula, a Hanks solution (pH 7.2) containing 2% albumin, 0.5 mM ethyleneglycolbis(2-aminoethylether) tetraacetate (EGTA) and 10 mM HEPES and being free from a divalent calcium ion and a divalent magnesium ion was subjected to perfusion (flow rate: 0.5 ml/sec) for 5 minutes. The Hanks solution was then changed to another Hanks solution (pH 7.5) having 0.05% collagenase, 4 mM calcium chloride and 10 mM HEPES added thereto and perfusion was continued for further 15 to 20 minutes. After confirmation of the sufficient digestion by collagenase, the liver tissue was placed on a Petri dish, 30 ml of a Dulbeco's modified Eagle's (DEM) medium was added thereto and cells were dispersed by drawing through suction. A cell filter was employed to remove the undigested tissue. The resulting cell suspension was subjected to centrifugal separation at 600 rpm for 1 minute. A 30 ml of DME medium was added to the sediment to disperse the cells, followed by centrifugal separation at 600 rpm for 1 minute. After these washing procedures by centrifugation were repeated three times in total, the liver cell suspension was suspended in a DME medium containing 10% of lipoprotein deficient serum (LPDS). The resulting suspension was seeded on a commercially-available 6-well plate coated with collagen at a cell density of 1 x 10^6 cells per well, followed by incubation overnight in a CO2 incubator (5% CO2 gas, 37°C).
The uptake of [^14C]-acetic acid radioactivity in cholesterol was measured using the liver cells prepared in the above-described manner and the cholesterol synthesis inhibitory activity of the test medicament was evaluated.
Described specifically, the cell culture medium of the liver cells was replaced by a 25 mM HEPES-10% LPDS-DME medium (pH 7.4) containing the test medicament, followed by incubation for one hour in a CO2 incubator. Then, [^14C] sodium acetate was added to give the final concentration of 1 µCi/ml. After incubation for further one hour in the CO2 incubator, the cell culture medium was removed. The cells were washed three times with a phosphate buffered saline (pH 7.2) and then dissolved in 1 ml of a 0.1N aqueous sodium hydroxide solution. […] To the vial, 10 ml of Aquasol 2 was added and ^14C and ^3H radioactivities were counted by a liquid scintillation counter.
The cholesterol synthesis inhibitory activity of the test medicament was calculated in the below-described procedures. […]

A further test concerns the target T1, squalene synthetase (Homo sapiens, UniProt P37268).
T1 construct: 0.01 to 0.1 µg of the HepG2 cell microsome preparation; endogenous in cells; host or cells: HepG2 cells (microsome fraction)
T1 sequence (P37268 1-417): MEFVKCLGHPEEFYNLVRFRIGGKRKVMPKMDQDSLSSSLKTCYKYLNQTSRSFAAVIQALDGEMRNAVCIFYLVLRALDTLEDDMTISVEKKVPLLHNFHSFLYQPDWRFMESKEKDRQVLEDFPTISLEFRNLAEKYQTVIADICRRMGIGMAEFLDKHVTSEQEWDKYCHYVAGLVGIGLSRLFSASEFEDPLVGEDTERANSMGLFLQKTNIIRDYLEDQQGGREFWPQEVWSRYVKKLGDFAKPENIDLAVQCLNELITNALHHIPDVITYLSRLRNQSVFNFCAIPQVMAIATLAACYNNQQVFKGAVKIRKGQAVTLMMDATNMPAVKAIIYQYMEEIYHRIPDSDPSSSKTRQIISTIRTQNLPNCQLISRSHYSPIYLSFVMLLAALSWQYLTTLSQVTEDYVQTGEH
Briefly: Squalene synthetase inhibitory activity (HepG2 cell microsome fraction, [3H]farnesyl pyrophosphate incorporation into squalene). Type of test: biochemical. The conditions noted are these: HepG2 cell microsome preparation, 5 µM [3H]farnesyl pyrophosphate, 37°C for 20 minutes. As to the method: As an enzyme source to measure squalane synthetase activity, we prepared a microsome fraction from a human hepatoma-derived cell line, HepG2 cells, according to the method described by Schechter et al. (Journal of Biological Chemistry, Vol. 267, pp.8628-8635, 1992).
Described specifically, HepG2 cells were first homogenized in the presence of a 10 mM N-2-hydroxyethylpiperazin-N'-2-ethanesulfonate (HEPES) buffer containing 0.3M sucrose, 1 mM dithiothreitol (DTT), 1 mM sodium ethylenediaminetetraacetate (EDT) and various protease inhibitors and adjusted to pH 7.4. The resulting mixture was subjected to centrifugal separation at 2,000 x g for 5 minutes and then 10,000 x g for 15 minutes. The protease inhibitors employed were phenylmethanesulfonyl fluoride (PMSF), leupeptin and aprotinin, which were added to give the final concentration of 1 mM, 10 µM and 5 µg/ml, respectively. The supernatant after centrifugation was centrifuged further at 105,000 xg for 60 minutes. The precipitate thus obtained was suspended in a 20 mM phosphate buffer (pH 7.4) containing 1 mM DTT, 1 mM EDTA and the above-described protease inhibitors and the resulting suspension was washed twice by centrifugation at 105,000 x g for 30 minutes. The precipitate was then suspended in a 20 mM phosphate buffer (pH 7.4) containing 1 mM DTT and 1 mM EDTA and the resulting suspension was similarly centrifuged. […]

For four compounds, IC50 results are on record in patent publication EP0949238A1, “SUBSTITUTED PROPIONYL DERIVATIVES” (DAIICHI PHARMACEUTICAL CO., LTD., priority 1996, dated 1998).

As to `CN(CCCCCc1ccc2ccccc2c1)C(=O)[C@H](OCCCCNc1ccc2c(c1)CCC2)[C@@H](OCC(=O)O)C(=O)O` [Example 48, (2R,3R)-2-Carboxymethoxy-3-[4-(5-indanylamino)butoxy]-3-[N-methyl-N-[5-(2-naphthyl)pentyl]carbamoyl]propionic acid], in the test with rat liver cells, the IC50 is 19 nM.
On the same count and under the same terms, as for `C[C@H](NC(=O)C[C@@H](CC(=O)O)C(=O)O)[C@@H](Cc1ccc(Cl)c(Cl)c1)OC(=O)c1ccc2ccccc2c1` [Compound A, (2S)-2-[N-{(1S,2R)-3-(3,4-dichlorophenyl)-1-methyl-2-(2-naphthoyloxy)propyl}carbamoylmethyl] succinic acid, reference compound], the figure is 320 nM.
Same read-out and setting: next, `CC(C)(C)CN1C(=O)[C@@H](CC(=O)NCC(=O)O)O[C@H](c2ccccc2Cl)c2cc(Cl)ccc21` [Compound B, N-[(3R,5S)-7-chloro-5-(2-chlorophenyl)-1-neopentyl-2-oxo-1,2,3,5-tetrahydro-4,1-benzoxazepin-3-acetyl] aminoacetic acid, reference compound]: 390 nM.
As for `O=C(O)CO[C@@H](C(=O)O)[C@@H](OCCCCCc1ccc2ccccc2c1)C(=O)NCCCCCc1ccc2ccccc2c1` [Example 1, (2R,3R)-2-Carboxymethoxy-3-[N-[5-(2-naphthyl)pentyl]carbamoyl]-3-[5-(2-naphthyl)pentyloxy]propionic acid], the IC50 against squalene synthetase was found to be 0.3 nM; in the test with rat liver cells, 150 nM.

In general, IC50 refers to the concentration that gives 50% inhibition.
